Reference: US7084122B2, “Use of glycosides of mono- and diacyglycerol as anti-inflammatory agents” (priority 2001, dated 2006)
Where two headings read alike, the source gives them in different places.

Tests used:
Assay type in all cases: cell-based
[1] = tested on: polymorphonuclear leukocytes; test: Cell viability by trypan blue dye exclusion; details: for Percent viability: DMSO control 100
Protocol: (§1) Polymorphonuclear leukocytes (PMNS) were isolated from the peripheral blood of healthy individuals in citrated glass. The cells were separated by dextran density gradient and lymphoprep separation. The purity of PMNs was greater than 98% and the cell viability as determined by trypan blue dye exclusion was greater than 98%.
Table 6. […] Cell viability was determined by a trypan blue dye exclusion method. The cells were incubated with trypan blue. The dead cells will take up dye and appear blue under the microscope. The results are show as percent viable cells.

[2] = tested on: human peripheral blood polymorphonuclear leukocytes; test: Chemiluminescence assay (oxidative burst response), stimulated with opsonized zymosan; details: for Chemiluminescence, Millivolts: DMSO control 664
Protocol: as §1
Chemiluminescence assay was used as a measure of oxygen radical generation by activated PMNs. The method was performed as described in Kharazmi, A., Høiby, N., Doring, G., and Valerius, N. H. Pseudomonas aeruginosa exoproteases inhibit human neutrophil chemiluminescence. Infect. Immun. 44, 587, 1984. PMNs were pre-incubated with different concentrations of the extracted galactolipid and then stimulated with opsonized zymosan. The oxidative burst response of the activated cells was measured by a luminometer (1250-LKB Wallace).

[3] = tested on: human peripheral blood polymorphonuclear leukocytes; test: Chemotaxis assay, modified Boyden chamber, towards zymosan activated serum (ZAS)
Protocol: as §1
Chemotaxis assay was performed using a modified Boyden chamber technique as described in Jensen, P. and Kharazmi, A., Computer-assisted image analysis assay of human neutrophil chemotaxis in vitro. J. Immunol. Methods, 144, 43–48. 1991. The purified PMNs were pre-incubated with different dilutions of the extracted galactolipid for 30 min at 37° C. Following preincubation, the chemotaxis of the cells towards the chemotactic factor zymosan activated serum (ZAS), which contains the biologically active chemoattractant C5a, were tested. The migrated cells were counted by a computer-assisted image analysis system.

`CC/C=C\C/C=C\C/C=C\CCCCCCCC(=O)OCC(CO[C@@H]1O[C@H](CO)[C@H](O)[C@H](O)[C@H]1O)OC(=O)CCCCCCC/C=C\C/C=C\C/C=C\CC` (stereo partly drawn) [GOPO, 3-β-D-galactopyranosyloxy-2-(octadeca-9Z,12Z,15Z-trienoyloxy)propanyl octadeca-9Z,12Z,15Z-trienoate] was tested, and the Percent viability ([1]; GOPO 50 μg/ml) was 100%, the Percent viability ([1]; GOPO 100 μg/ml) was 99% and the “Toxicity to the cells (result in words)” value ([1]; at the tested concentrations) was “does not appear to be toxic”. For the same compound, the “Chemiluminescence, Millivolts” value ([2]; GOPO 50 μg/ml) was 520 Millivolts, the “Chemiluminescence, Millivolts” value ([2]; GOPO 100 μg/ml) was 339 Millivolts and the “Chemiluminescence of human peripheral blood leukocytes (result in words)” value ([2]; at fairly low concentrations) was “inhibited”. The Cells migrated ([3]; GOPO 0.1 μg/ml, new batch (Table 4), DMSO control 42) was 39, the Cells migrated ([3]; GOPO 1 μg/ml, new batch (Table 4), DMSO control 42) was 15 and the Cells migrated ([3]; GOPO 10 μg/ml, new batch (Table 4), DMSO control 42) was 16. It also gave a Cells migrated ([3]; GOPO 50 μg/ml, first batch (Table 3), DMSO control 59) of 5, a Cells migrated ([3]; GOPO 100 μg/ml, first batch (Table 3), DMSO control 59) of 8 and a Cells migrated ([3]; GOPO 100 μg/ml, new batch (Table 4), DMSO control 42) of 12. For the same compound, the inhibition at 0.1 µg/mL ([3]; Homo sapiens, Leukocyte, GOPO 0.1 μg/ml, new batch (Table 4), read-out: Percent inhibition) was 7%, the inhibition at 1 µg/mL ([3]; Homo sapiens, Leukocyte, GOPO 1 μg/ml, new batch (Table 4), read-out: Percent inhibition) was 64% and the inhibition at 10 µg/mL ([3]; Homo sapiens, Leukocyte, GOPO 10 μg/ml, new batch (Table 4), read-out: Percent inhibition) was 62%. It also gave an inhibition at 50 µg/mL ([3]; Homo sapiens, Leukocyte, GOPO 50 μg/ml, first batch (Table 3), read-out: Percent inhibition) of 92%, an inhibition at 100 µg/mL ([3]; Homo sapiens, Leukocyte, GOPO 100 μg/ml, first batch (Table 3), read-out: Percent inhibition) of 86% and an inhibition at 100 µg/mL ([3]; Homo sapiens, Leukocyte, GOPO 100 μg/ml, new batch (Table 4), read-out: Percent inhibition) of 71%. The “Migration of human peripheral blood leukocytes towards zymosan-activated serum (result in words)” value ([3]; at fairly low concentrations) was “inhibited”.
